The results in this text go back to patent US12098145B2 (Libra Therapeutics, Inc., priority 2022, dated 2024).

Molecules are shown by their SMILES.

The target in this experiment is T1, TRPML1 (Homo sapiens, UniProt Q9GZU1).
T1 construct: expressed in transfected cells; host or cells: HEK T-REx cells stably expressing GCaMP6f and TRPML1
The experiment can be described thus: Cellular TRPML1 assay (FLIPR, GCaMP6f calcium read-out). It counts as cell-based. Conditions: HEKT-REx/GCaMP6f/TRPML1 cells, FLIPR TETRA, kinetic response over 300 seconds; read-out: TRPML1 FLIPR pEC50 (converted). Here is the method: Example A: Cellular TRPML1 Assay
The final clone for the TRPML1 assay is HEKT-REx/GCaMP6f/TRPML1. GCaMP6f is a genetically encoded calcium indicator that is stably expressed in this cell line and used as a fluorescent read-out.
Experiments were performed in 384 MTP format. Cells are seeded at 15000 cells/well in 20 μl/well of Optimem+0.5% FBS without selection antibiotics. Twenty-four hours later, cells are assayed for the response to various compounds using the Ca^2+ sensitive GCaMP6f protein stably expressed in the cells as readout.
The experiment was performed in a 384-well format according to the following procedures: • 24 h after seeding, the cells were pre-incubated at room temperature for about 10 min. • Started the experiment at the FLIPR^TETRA by injecting 10 μL/w of 3× concentrated test compounds and controls in Ca^2+ free Tyrode's buffer. Monitored the kinetic response over a period of 300 seconds. • Final DMSO concentration: 0.5%
Data from FLIPR^TETRA measurements were analyzed with the Genedata Screener© software.

T1 sequence (Q9GZU1 whole entry): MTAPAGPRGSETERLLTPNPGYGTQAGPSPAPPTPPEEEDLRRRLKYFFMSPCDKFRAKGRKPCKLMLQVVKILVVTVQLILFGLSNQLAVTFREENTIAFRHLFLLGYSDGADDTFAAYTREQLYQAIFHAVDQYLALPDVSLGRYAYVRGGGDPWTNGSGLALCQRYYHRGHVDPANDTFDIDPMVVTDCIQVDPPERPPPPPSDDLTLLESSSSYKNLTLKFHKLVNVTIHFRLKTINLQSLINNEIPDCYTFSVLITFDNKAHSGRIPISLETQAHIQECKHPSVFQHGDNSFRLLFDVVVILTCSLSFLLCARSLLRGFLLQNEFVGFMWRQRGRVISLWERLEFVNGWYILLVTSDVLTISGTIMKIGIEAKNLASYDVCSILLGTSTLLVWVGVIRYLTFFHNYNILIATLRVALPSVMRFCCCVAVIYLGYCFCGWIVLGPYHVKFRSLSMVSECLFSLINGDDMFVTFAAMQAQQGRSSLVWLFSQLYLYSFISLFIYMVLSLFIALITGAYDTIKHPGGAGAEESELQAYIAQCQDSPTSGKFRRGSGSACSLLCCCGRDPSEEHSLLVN

Regarding `CCC1(CC)CN(c2nc(C(=O)Nc3cc(C)c4c(c3)CCN4C3CC4CC4C3)c(CC(F)(F)F)o2)C1` (stereo not shown) [Example 310, N-(1-(bicyclo[3.1.0]hexan-3-yl)-7-methylindolin-5-yl)-2-(3,3-diethylazetidin-1-yl)-5-(2,2,2-trifluoroethyl)oxazole-4-carboxamide], the EC50 was 1 to 10 µM.

For the compound `N#CC1CN(c2nc(C(=O)Nc3ccc(OC4CCCC4(F)F)c(F)c3)c(CC(F)(F)F)o2)C1` (stereo not shown) [Example 2, 2-(3-cyanoazetidin-1-yl)-N-{4-[(2,2-difluorocyclopentyl)oxy]-3-fluorophenyl}-5-(2,2,2-trifluoroethyl)-1,3-oxazole-4-carboxamide], the EC50 is 1 to 10 µM.

Turning to `O=C(Nc1cc(F)c2c(c1)CCN2C1CC2CC2C1)c1nc(N2CCC3(COC3)C2)oc1CC(F)(F)F` (stereo not shown) [Example 314, N-(1-(bicyclo[3.1.0]hexan-3-yl)-7-fluoroindolin-5-yl)-2-(2-oxa-6-azaspiro[3.4]octan-6-yl)-5-(2,2,2-trifluoroethyl)oxazole-4-carboxamide], the EC50 was 1 to 10 µM.

With `CC(C)OC1CN(c2nc(C(=O)Nc3ccc(OC4CCCC4(F)F)c(F)c3)c(CC(F)(F)F)o2)C1` (stereo not shown) [Example 24, N-{4-[(2,2-difluorocyclopentyl)oxy]-3-fluorophenyl}-2-[3-(propan-2-yloxy)azetidin-1-yl]-5-(2,2,2-trifluoroethyl)oxazole-4-carboxamide], the EC50 was 1 to 10 µM.

In the case of `O=C(Nc1cc(F)c(OC2CC3C[C@@H]3C2)c(F)c1)c1nc(N2CC3CC2CO3)oc1CC(F)(F)F` (stereo partly drawn) [Example 182, 2-(2-oxa-5-azabicyclo[2.2.1]heptan-5-yl)-N-(4-(cis-bicyclo[3.1.0]hexan-3-yloxy)-3,5-difluorophenyl)-5-(2,2,2-trifluoroethyl)oxazole-4-carboxamide], the EC50 was 1 to 10 µM.

Turning to `COCc1oc(N2CC3(C2)CC(F)(F)C3)nc1C(=O)Nc1ccc(N2CCCCC2)c(F)c1` [Example 104, 2-{6,6-difluoro-2-azaspiro[3.3]heptan-2-yl}-N-[3-fluoro-4-(piperidin-1-yl)phenyl]-5-(methoxymethyl)oxazole-4-carboxamide], the EC50 was 1 to 10 µM.

Turning to `CCC1(CC)CN(c2nc(C(=O)Nc3cc(F)c4c(c3)CCN4C3CC4CC4C3)c(CC(F)(F)F)o2)C1` (stereo not shown) [Example 311, N-(1-(bicyclo[3.1.0]hexan-3-yl)-7-fluoroindolin-5-yl)-2-(3,3-diethylazetidin-1-yl)-5-(2,2,2-trifluoroethyl)oxazole-4-carboxamide], the EC50 is 1 to 10 µM.

On to `CCc1oc(N2CCCC2)nc1C(=O)Nc1cc(F)c(O[C@@H]2C[C@@H]3C[C@@H]3C2)c(Cl)c1` [Example 222, N-(4-(cis-bicyclo[3.1.0]hexan-3-yloxy)-3-chloro-5-fluorophenyl)-5-ethyl-2-(pyrrolidin-1-yl)oxazole-4-carboxamide], for which the EC50 was 0.01 to 1 µM.

On to `COC1(C)CN(c2nc(C(=O)Nc3cc(F)c4c(c3)CCN4C3CC4CC4C3)c(CC(F)(F)F)o2)C1` (stereo not shown) [Example 312, N-(1-(bicyclo[3.1.0]hexan-3-yl)-7-fluoroindolin-5-yl)-2-(3-methoxy-3-methylazetidin-1-yl)-5-(2,2,2-trifluoroethyl)oxazole-4-carboxamide], for which the EC50 was 1 to 10 µM.

For `CCc1oc(N2CCCOCC2)nc1C(=O)Nc1cc(F)c(O[C@@H]2C[C@@H]3C[C@@H]3C2)c(F)c1` [Example 231, N-(4-(cis-bicyclo[3.1.0]hexan-3-yloxy)-3,5-difluorophenyl)-5-ethyl-2-(1,4-oxazepan-4-yl)oxazole-4-carboxamide], the EC50 is 1 to 10 µM.

For the compound `O=C(Nc1ccc(OC2CCCC2(F)F)c(F)c1)c1nc(N2CCCC23CC3)oc1CC(F)(F)F` (stereo not shown) [Example 11, N-(4-((2,2-difluorocyclopentyl)oxy)-3-fluorophenyl)-2-(4-azaspiro[2.4]heptan-4-yl)-5-(2,2,2-trifluoroethyl)oxazole-4-carboxamide], the EC50 was 1 to 10 µM.

For `CCC1(CC)CN(c2nc(C(=O)Nc3ccc(N4CCC5CC5C4)c(F)c3)c(CC(F)(F)F)o2)C1` (stereo not shown) [Example 212, N-(4-(3-azabicyclo[4.1.0]heptan-3-yl)-3-fluorophenyl)-2-(3,3-diethylazetidin-1-yl)-5-(2,2,2-trifluoroethyl)oxazole-4-carboxamide], the EC50 was 0.01 to 1 µM.

In the case of `O=C(Nc1ccc(O[C@@H]2COCC2(F)F)c(F)c1)c1nc(N2CCCC2)oc1CC(F)(F)F` [Example 49, (R)—N-(4-((4,4-difluorotetrahydrofuran-3-yl)oxy)-3-fluorophenyl)-2-(pyrrolidin-1-yl)-5-(2,2,2-trifluoroethyl)oxazole-4-carboxamide], the EC50 was 1 to 10 µM.

Regarding `Cc1oc(N2CCC(O)C2)nc1C(=O)Nc1ccc(N2CCCCC2)c(F)c1` (stereo not shown) [Example 97, N-(3-fluoro-4-(piperidin-1-yl)phenyl)-2-(3-hydroxypyrrolidin-1-yl)-5-methyloxazole-4-carboxamide], the EC50 was 10 to 100 µM.

For `Cc1cc(NC(=O)c2nc(N3CCCC3)oc2CC(F)(F)F)cc(F)c1NC1C2CCCC1CC2` (stereo not shown) [Example 194, N-(4-(bicyclo[3.2.1]octan-8-ylamino)-3-fluoro-5-methylphenyl)-2-(pyrrolidin-1-yl)-5-(2,2,2-trifluoroethyl)oxazole-4-carboxamide], the EC50 was 10 to 100 µM.

Take `Cc1oc(N2C3CCC2COC3)nc1C(=O)Nc1ccc(N2CCCCC2)c(F)c1` [Example 98, 2-(3-oxa-8-azabicyclo[3.2.1]octan-8-yl)-N-(3-fluoro-4-(piperidin-1-yl)phenyl)-5-methyloxazole-4-carboxamide]: the EC50 was 10 to 100 µM.

Regarding `Cc1oc(N2CCCCC2)nc1C(=O)Nc1ccc(N2CCCCC2)c(F)c1` [Example 114, N-(3-fluoro-4-(piperidin-1-yl)phenyl)-5-methyl-2-(piperidin-1-yl)oxazole-4-carboxamide], the EC50 was 10 to 100 µM.

With `CCc1oc(N2CC(CC)(OC)C2)nc1C(=O)Nc1ccc(O[C@@H]2C[C@@H]3C[C@@H]3C2)c(F)c1` [Example 246, N-(4-(cis-bicyclo[3.1.0]hexan-3-yloxy)-3-fluorophenyl)-5-ethyl-2-(3-ethyl-3-methoxyazetidin-1-yl)oxazole-4-carboxamide], the EC50 is 0.01 to 1 µM.

On to `O=C(Nc1ccc(OC2CCCC2(F)F)c(F)c1)c1nc(N2CC3CCCC3C2)oc1CC(F)(F)F` (stereo not shown) [Example 23, N-(4-((2,2-difluorocyclopentyl)oxy)-3-fluorophenyl)-2-(hexahydrocyclopenta[c]pyrrol-2(1H)-yl)-5-(2,2,2-trifluoroethyl)oxazole-4-carboxamide], for which the EC50 was 0.01 to 1 µM.

As to `COC1(C)CN(c2nc(C(=O)Nc3cc(O)c(OC4CC5CC(C5)C4)c(F)c3)c(CC(F)(F)F)o2)C1` (stereo not shown) [Example 265, N-(4-(bicyclo[3.1.1]heptan-3-yloxy)-3-fluoro-5-hydroxyphenyl)-2-(3-methoxy-3-methylazetidin-1-yl)-5-(2,2,2-trifluoroethyl)oxazole-4-carboxamide], the EC50 was 1 to 10 µM.

On to `CC1(C)CCCN(c2c(F)cc(NC(=O)c3nc(N4CCCC4)oc3CC(F)(F)F)cc2F)C1` [Example 213, N-(4-(3,3-dimethylpiperidin-1-yl)-3,5-difluorophenyl)-2-(pyrrolidin-1-yl)-5-(2,2,2-trifluoroethyl)oxazole-4-carboxamide], for which the EC50 is 0.01 to 1 µM.

Consider `CCc1oc(N2CC(CC)(CC)C2)nc1C(=O)Nc1cc(F)c(O[C@@H]2C[C@@H]3C[C@@H]3C2)c(F)c1` [Example 243, N-(4-(cis-bicyclo[3.1.0]hexan-3-yloxy)-3,5-difluorophenyl)-2-(3,3-diethylazetidin-1-yl)-5-ethyloxazole-4-carboxamide], for which the EC50 was 0.01 to 1 µM.

On to `NCC1CN(c2nc(C(=O)Nc3ccc(OC4CCCC4(F)F)c(F)c3)c(CC(F)(F)F)o2)C1` (stereo not shown) [Example 88, 2-[3-(aminomethyl)azetidin-1-yl]-N-{4-[(2,2-difluorocyclopentyl)oxy]-3-fluorophenyl}-5-(2,2,2-trifluoroethyl)oxazole-4-carboxamide], for which the EC50 was 10 to 100 µM.

Consider `Cc1oc(NC2CCCC23CCCO3)nc1C(=O)Nc1ccc(N2CCCCC2)c(F)c1` (stereo not shown) [Example 95, 2-((1-oxaspiro[4.4]nonan-6-yl)amino)-N-(3-fluoro-4-(piperidin-1-yl)phenyl)-5-methyloxazole-4-carboxamide], for which the EC50 was 10 to 100 µM.

Regarding `Cc1oc(N2CCC3(CCC3)C2)nc1C(=O)Nc1ccc(N2CCCCC2)c(F)c1` [Example 92, N-(3-fluoro-4-(piperidin-1-yl)phenyl)-5-methyl-2-(6-azaspiro[3.4]octan-6-yl)oxazole-4-carboxamide], the EC50 was 10 to 100 µM.

For `O=C(Nc1ccc(OC2CCCC2(F)F)c(F)c1)c1nc(N2CC3(CCOCC3)C2)oc1CC(F)(F)F` (stereo not shown) [Example 14, N-(4-((2,2-difluorocyclopentyl)oxy)-3-fluorophenyl)-2-(7-oxa-2-azaspiro[3.5]nonan-2-yl)-5-(2,2,2-trifluoroethyl)oxazole-4-carboxamide], the EC50 was 1 to 10 µM.

As for `O=C(Nc1cc(F)c(OC2CC3C[C@H]3C2)c(F)c1)c1nc(N2CCC3(COC3)C2)oc1CC(F)(F)F` (stereo partly drawn) [Example 35, N-(4-{cis-bicyclo[3.1.0]hexan-3-yloxy}-3,5-difluorophenyl)-2-{2-oxa-6-azaspiro[3.4]octan-6-yl}-5-(2,2,2-trifluoroethyl)oxazole-4-carboxamide], the EC50 is 0.01 to 1 µM.

Take `CCc1oc(N2CC(CC)(OC)C2)nc1C(=O)Nc1ccc(O[C@@H]2C[C@@H]3C[C@@H]3C2)c(F)c1F` [Example 250]: the EC50 is 10 to 100 µM.
